Structures can show the parent of a compound that is named as a salt. Marks after values point to notes of the source that are not given here.
Assays:
[1] = Drug release kinetics (prodrug cleavage) in human blood plasma; format: in vitro ADME; settings: for t1/2 at 37 °C and [prodrug]0 = 50 µM, 100 % Human Plasma / half-life at 50 µM: 100 % human plasma; for half-life at 50 µM / half-life: 37 °C; for half-life: 10 % human plasma in PBS, 50 µM
Description: Pooled human blood plasma (Biowest, France) and sterile Dulbecco's phosphate buffered saline (PBS) pH 7.3 (Sigma-Aldrich, Germany) were used for all experiments. The blood plasma was aliquoted upon receipt and stored at -20 °C. 10 % solutions were prepared by thawing a plasma aliquot at 2-8 °C, distributing it into plastic vials and diluting with the appropriate volume of sterile PBS. The 10 % and 100 % plasma aliquots were stored at -20 °C and thawed at 2-8 °C directly before the assay was performed. In a thermoblock, a plasma aliquot and 10 µl of a 5 mM prodrug solution in DMSO were prewarmed to 37 °C for 10 min in separate plastic vials. Then, 1000 µl of the prewarmed plasma sample was added to the prodrug solution, and 9×100 µl samples were withdrawn at appropriate time intervals. The enzymatic reaction was quenched by immediate mixing of the samples (100 µl) with acetonitrile (200 µl). Blank samples were prepared by mixing 10 % or 100 % plasma (100 µl) with acetonitrile (200 µl), respectively. Samples of the initial reaction mixture were prepared by adding the 5 mM prodrug solution (1 µl) to a blank sample.
Centrifugation (13,000 rpm, 3 min) of the quenched samples afforded clear supernatants which were transferred to 96 well U-bottom polypropylene plates (Greiner Bio-One, Germany). Analyte quantifications were performed on a Jasco HPLC system equipped with a UV detector and an RP-18 column (Chromolith® Performance RP-18e, 100x4.6 mm) using one of the gradients listed in Table 3. Prodrug degradation was monitored using undiluted supernatant and a 10 min chromatographic method. […] For all samples, the injection volume was 40 µL and the flow was set to 1.0 mL/min. […] Table 3: HPLC settings for quantitative analysis of plasma samples.

HuH-7 cells = experiment: Cell viability in HuH-7 cells (CellTiter-Blue); format: cell-based, human; settings: for Cell Viability in HuH7 at 50 µM, 2 h Incubation / Cell Viability in HuH7 at 50 µM, 24 h Incubation: mean of triplicates ± standard deviation; for toxicity for HuH-7 cells: result in words
Description: In order to assess cytotoxic effects of compounds in cell culture, HuH-7 cells were incubated in presence of these compounds in a 96-well plate for 2 h or 24 h. In order to generate a calibration curve for cell viability, a serial dilution (1:2 dilution series) of cells was seeded into control wells. Measurement of cell viability is based on the assay development using CellTiter-Blue reagent (Resazurin, blue color), which is reduced to resofurin (pink color) by viable cells.
Prior to performing the assay, a 96-well assay plate (F-bottom, transparent, Greiner) containing HuH-7 cells (20,000 cells per well) in culture medium was prepared. […] CellTiter-Blue reagent (1-2 mL) was diluted with cell culture medium (10 mL) in a Falcon tube and prewarmed to 37 °C. The 96-well plate was removed from the incubator, the medium aspirated using a vacuum pump and 100 µL of diluted CellTiter-Blue reagent was added to each well.

[2] = Prodrug stability in human whole saliva; format: in vitro ADME; settings: mean of fresh samples of three individuals, classified into three groups; for half-life at 50 µM: 37 °C
Description: Freshly collected saliva and 5 mM stock solutions of the analytes in DMSO were prewarmed to 37 °C for 10 min. Then, 700 µl prewarmed saliva was added to 7 µl of the prodrug stock, and the mixture was incubated at 37 °C. Samples (100 µL) were taken at selected time points (0, 10, 20, 40, 60 min; 2 h or 24 h) and immediately quenched with acetonitrile (200 µl). Blank samples were prepared by mixing saliva (100 µl) with acetonitrile (200 µl). Centrifugation (3,000 rpm, 5 min) of the quenched samples afforded clear supernatants which were transferred to 96 well U-bottom polypropylene plates (Greiner Bio-One, Germany). Analyte quantifications were performed on a Jasco HPLC system equipped with a UV detector and an RP-18 column (Chromolith® Performance RP-18e, 100x4.6 mm) using the gradients listed in Table 4. Samples that gave rise to asymmetric peaks inadequate for quantification were diluted (1:1) with H2O (+0.1 % TFA). The injection volume was 40 µl and the flow was set to 1.0 mL/min. UV detection was performed at 286 nm. […] Table 4: HPLC settings for quantitative analysis of saliva samples.

[3] = Passive membrane permeation assay (PAMPA); format: in vitro ADME; settings: pre-coated PAMPA plate, PBS pH 7.4, 200 µM, 25 °C; for R (mass retention) / Pe: 5 h; for Papp at 5 h, 200 µM / Pe: mean ± standard deviation; for Papp at 5 h, 200 µM: read-out: Pe
Description: The passive membrane permeability was evaluated with a pre-coated PAMPA plate system (BD Gentest, BD Bioscience, Germany) following the guidelines of the manufacturer and a previous literature report (cf. Kühl et al. Eur. J. Med. Chem. 2022, 240, 114585). Phosphate-buffered saline (PBS) pH 7.4 (Sigma-Aldrich, Germany) was used for all experiments. Analyte concentrations were determined on a Jasco HPLC system equipped with a UV detector and an RP-18 column (Chromolith® Performance RP-18e, 100x4.6 mm) using one of the gradients listed in Table 2. For all samples, the injection volume was 40 µl. Table 2: HPLC settings for the analysis of PAMPA samples.
Prior to performing the assay, the PAMPA plate was warmed to room temperature for 0.5 h. In the donor plate, 300 µL of the 200 µM compound solutions in PBS (4 % dimethyl sulfoxide (DMSO)) were dispensed in triplicate, and in the acceptor plate, 200 µL of PBS buffer were added to all wells. The plates were combined, and the system was incubated at 25 °C for 5 h. Upon completion of the incubation, donor and acceptor plate were separated. The wells were homogeneously mixed with a pipette, and a 100 µl sample of each donor and acceptor well was transferred to 96 well U-bottom polypropylene plates (Greiner Bio-One, Germany) for quantitative HPLC analysis.

[4] = 100 % pooled human blood plasma

Row | Structure (SMILES) | Cell Viability in HuH7 at 50 µM, 2 h Incubation (HuH-7 cells) [%] | Cell Viability in HuH7 at 50 µM, 24 h Incubation (HuH-7 cells) [%] | R (mass retention) [3] | Papp at 5 h, 200 µM [3] [×10⁻⁶ cm/s] | other results
1 | CCN(C)CCc1c[nH]c2cccc(OC(=O)c3ccco3)c12.CCN(C)CCc1c[nH]c2cccc(OC(=O)c3ccco3)c12.O=C(O)/C=C/C(=O)O [Compound 8j, 4-(2-Furoyl)oxy-N-ethyl-N-methyltryptammonium fumarate] | 89.6 ± 3.4 | 78.0 ± 2.0 |  |  | t1/2 at 37 °C and [prodrug]0 = 50 µM, 100 % Human Plasma [1]: 0.14 ± 0.01 min; t1/2 at 37 °C and [prodrug]0 = 50 µM, Human Saliva [2]: 15 to 60 min
2 | CCN(C)CCc1c[nH]c2cccc(OC(=O)C(C)(C)C)c12 [Compound 8f, 4-Pivaloyloxy-N-ethyl-N-methyltryptammonium fumarate] | 80.4 ± 2.1 | 79.4 ± 2.1 | -2% | 10.7 ± 0.7 | half-life at 50 µM [1]: > 1 h; half-life at 50 µM [2]: > 60 min; t1/2 at 37 °C and [prodrug]0 = 50 µM, Human Saliva [2]: > 60 min
3 | CCCC(=O)OCOc1cccc2[nH]cc(CCN(C)CC)c12 [Compound 15d, 4-n-Butanoyloxymethyloxy-N-ethyl-N-methyltryptammonium fumarate] | 85.4 ± 2.7 | 80.6 ± 3.3 | 6% |  | Pe [3]: 8.0 ± 0.3 10^-6 cm/s; half-life at 50 µM [2]: < 15 min
4 | CCCCCC(=O)Oc1cccc2[nH]cc(CCN(C)CC)c12 [Compound 8c, 4-Hexanoyloxy-N-ethyl-N-methyltryptammonium fumarate, reference compound] | 30.2 ± 1.0 | 74.3 ± 8.0 | 7% | 11.8 ± 1 | half-life [1]: 0.66 ± 0.13 min; half-life at 50 µM [2]: < 15 min
5 | CCN(C)CCc1c[nH]c2cccc(OC(=O)CC(C)C)c12 [Compound 8g, 4-(3-Methylbutanoyl)oxy-N-ethyl-N-methyltryptammonium fumarate] | 81.7 ± 8.6 | 79.8 ± 4.6 | 2% | 10.6 ± 0.8 | half-life [1]: > 8 min
6 | CC(=O)Oc1ccccc1C(=O)O [Acetylsalicylic acid, reference compound] | 92.9 ± 3.3 | 83.8 ± 3.8 |  |  | half-life at 50 µM ([2]; both sexes): > 60 min
7 | CCN(C)CCc1c[nH]c2cccc(OC(=O)C3CC3)c12.CCN(C)CCc1c[nH]c2cccc(OC(=O)C3CC3)c12.O=C(O)/C=C/C(=O)O [Compound 8e, 4-(Cyclopropanecarbonyloxy)-N-ethyl-N-methyltryptammonium fumarate] | 101.2 ± 3.1 | 81.7 ± 2.0 |  |  | t1/2 at 37 °C and [prodrug]0 = 50 µM, 100 % Human Plasma [1]: 0.84 ± 0.11^c min; t1/2 at 37 °C and [prodrug]0 = 50 µM, Human Saliva [2]: > 60 min
8 | CCN(C)CCc1c[nH]c2cccc(OC(=O)c3ccccc3)c12 [Compound 8i, 4-Benzoyloxy-N-ethyl-N-methyltryptammonium fumarate] | 95.0 ± 3.8 | 80.1 ± 1.7 | 6% | 9.4 ± 0.8 | half-life [1]: 1.5 ± 0.5 min; half-life at 50 µM [2]: 15 to 60 min
9 | CCN(C)CCc1c[nH]c2cccc(OC(=O)CC(C)(C)C)c12 [Compound 8h, 4-(tert-Butylacetyl)oxy-N-ethyl-N-methyltryptammonium fumarate] | 28.7 ± 1.1 | 42.3 ± 25.9 | 1% | 11.2 ± 0.8 | half-life [1]: > 8 min
10 | Cn1c(=O)c2c(ncn2C)n(C)c1=O [Caffeine, reference compound] |  |  | 1% | 12.8 ± 0.9 | 
11 | CCN(C)CCc1c[nH]c2cccc(O)c12 [4-OH-MET fumarate 17, 4-Hydroxy-N-ethyl-N-methyltryptammonium fumarate, reference compound] | 91.0 ± 1.7 | 82.9 ± 1.3 | 29% | 11 ± 1 | 
12 | CCN(C)CCc1cn(C(=O)OCc2ccccc2)c2cccc(O)c12 [Compound 11, 1-Benzyloxycarbonyl-4-hydroxy-N-ethyl-N-methyltryptamine] | 0.1 ± 0.2 | -2.1 ± 0.1 |  |  | half-life at 50 µM [1, 4]: > 95 h; toxicity for HuH-7 cells (HuH-7 cells): extremely toxic
13 | NS(=O)(=O)c1cc(C(=O)O)c(NCc2ccco2)cc1Cl [Furosemide, reference compound] | 121.9 ± 13.8 | 90.7 ± 1.1 |  |  | Pe [3]: -0.4 ± 0.3^c 10^-6 cm/s
14 | CN(C)CCc1cn(C(=O)OCc2ccccc2)c2cccc(O)c12 [Compound 10, 1-Benzyloxycarbonyl-4-hydroxy-N,N-dimethyltryptamine] | 0.1 ± 0.2 | -1.3 ± 0.1 |  |  | half-life at 50 µM [1, 4]: > 95 h; toxicity for HuH-7 cells (HuH-7 cells): extremely toxic
15 | CN(C)CCCN1c2ccccc2CCc2ccccc21 [Imipramine HCl, reference compound] | 91.1 ± 3.7 | 24.4 ± 5.3 |  |  | 
16 | CN(C)CCc1c[nH]c2cccc(O)c12 [Psilocin 1, 4-Hydroxy-N,N-dimethyltryptamine, reference compound] | 93.7 ± 6.3 | 72.5 ± 8.3 |  |  | 
17 | O=C1NC(=O)C(c2ccccc2)(c2ccccc2)N1 [Phenytoin, reference compound] | 122.9 ± 1.7 | 84.2 ± 2.7 | 57% | 7.5 ± 1 | 
18 | CCCC(=O)OCOc1cccc2[nH]cc(CCN(C)C)c12 [Compound 15b, 4-n-Butanoyloxymethyloxy-N,N-dimethyltryptammonium fumarate] | 90.0 ± 5.2 | 79.3 ± 3.5 | 7^b % |  | Pe [3]: 8.1 ± 0.8^b 10^-6 cm/s; half-life at 50 µM [2]: < 15 min
